Reference: PubChem BioAssay (NCI)
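Five compound concentrations were applied to cells in 96-well plates for 48 hours; endpoints were derived by simple linear interpolation of the resulting dose-response curve. GI50 = concentration required for 50% inhibition of growth. The concentration for full growth arrest is given as TGI.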

What was measured:
Test in all cases: NCI anticancer screen, dose series, 48 h
HOP-62 NSCLC = test system: HOP-62 NSCLC
K-562 leukemia = test system: K-562 leukemia
M14 melanoma = test system: M14 melanoma
NCI/ADR-RES ovarian = test system: NCI/ADR-RES ovarian
OVCAR-3 ovarian = test system: OVCAR-3 ovarian
OVCAR-4 ovarian = test system: OVCAR-4 ovarian
RXF 393 renal = test system: RXF 393 renal
SK-MEL-5 melanoma = test system: SK-MEL-5 melanoma
T-47D breast = test system: T-47D breast
TK-10 renal = test system: TK-10 renal

Compound | GI50 (HOP-62 NSCLC) [µM] | TGI (HOP-62 NSCLC) [µM] | GI50 (K-562 leukemia) [µM] | TGI (K-562 leukemia) [µM] | TGI (M14 melanoma) [µM] | GI50 (NCI/ADR-RES ovarian) [µM] | TGI (NCI/ADR-RES ovarian) [µM] | GI50 (OVCAR-3 ovarian) [µM] | TGI (OVCAR-3 ovarian) [µM] | GI50 (OVCAR-4 ovarian) [µM] | TGI (OVCAR-4 ovarian) [µM] | GI50 (RXF 393 renal) [µM] | TGI (RXF 393 renal) [µM] | GI50 (SK-MEL-5 melanoma) [µM] | TGI (SK-MEL-5 melanoma) [µM] | TGI (T-47D breast) [µM] | GI50 (TK-10 renal) [µM] | TGI (TK-10 renal) [µM] | GI50 (M14 melanoma) [µM] | GI50 (T-47D breast) [µM]
COc1ccc2c(c1)c(CC(=O)[Se]C)c(C)n2C(=O)c1ccc(Cl)cc1 | > 0.306 | > 0.615 | > 0.583 | > 1 | > 0.34 | > 0.237 | > 0.695 | > 0.367 | > 0.583 | > 0.443 | > 1 | > 0.206 | > 0.5 | > 0.434 | > 0.608 | > 1 | > 0.347 | > 0.543 | – | –
Cc1cc2c(C(C)C)c(O)c(O)cc2c(O)c1-c1c(C)cc2c(C(C)C)c(O)c(O)cc2c1O | 13 | 30.2 | 5.72 | 27.7 | 27.6 | 20.7 | 48.9 | 14.4 | 29.8 | 14 | 33.8 | 15.1 | 33.5 | 12.6 | 26 | 45.7 | 13.6 | 83.4 | 12.3 | 19.1
CC1=C(C(=O)Nc2ccc3n[nH]c(C)c3c2)C(c2ccc(C(F)(F)F)cc2)CC(=O)N1 (configuration not stated) | 4.4 | > 25 | > 25 | > 25 | > 25 | > 25 | > 25 | > 25 | > 25 | 16 | > 25 | 6.7 | > 25 | > 17.7 | > 25 | > 25 | 14 | > 25 | > 25 | > 25
CC1=C(c2cccc(O)c2)[C@H](c2ccc(OCCN3CC(CF)C3)cc2)Oc2ccc(O)cc21 | 11 | 27.5 | 3.33 | 17.9 | 9.45 | 15 | 31 | 10.8 | 24.4 | 9.62 | 21.7 | 3.46 | 12.1 | 3.58 | 12.8 | 19.9 | 12 | 25.1 | 2.93 | 0.0747
O=C1/C(=C/c2ccccc2)CN(C(=O)CCN2CCOCC2)C/C1=C\c1ccccc1 | – | 17.3 | – | 4.18 | 5.4 | – | 9.46 | – | 11.5 | – | 8.38 | – | 8.87 | – | 4.99 | 7.35 | – | 24.3 | – | –
COC1CC(O[C@H]2CC[C@@]3(C)[C@H](CC[C@@H]4[C@@H]3CC[C@]3(C)[C@@H](C5=CC(=O)OC5)[C@@H](OC(C)=O)C[C@]43O)C2)OC(C)C1O (some centres not stated) | < 0.01 | < 0.01 | < 0.01 | < 0.0135 | < 0.0106 | < 0.01 | < 0.01 | < 0.01 | < 0.01 | < 0.01 | < 0.01 | < 0.01 | < 0.01 | < 0.01 | < 0.01 | < 0.01 | < 0.01 | < 0.01 | < 0.01 | < 0.01
Cc1cc([N+](=O)[O-])c(NS(=O)(=O)c2cccc(C(=O)O)c2)cc1-c1cccnc1 | > 100 | > 100 | > 100 | > 100 | > 100 | > 100 | > 100 | > 100 | > 100 | > 100 | > 100 | > 100 | > 100 | > 100 | > 100 | > 100 | > 100 | > 100 | > 100 | > 100
COc1cc2nc(N3CCCC3)nc(NCc3ccccc3)c2cc1OC | 12.3 | 26.9 | 2.09 | 6.02 | 3.49 | 3.71 | 18.7 | 2.27 | 5.53 | 2.95 | 11.3 | 1.41 | 3.06 | 1.65 | 3.12 | 4.29 | 1.9 | 3.71 | 1.81 | 1.87
CC(C)CCCC(C)[C@H]1CCC2[C@@H]3CCC4Cc5nc6c(nc5C[C@]4(C)C3CC[C@@]21C)CC1CC[C@@H]2C(CC[C@@]3(C)C2CC[C@@H]3C(C)CCCC(C)C)[C@@]1(C)C6 (some centres not stated) | – | > 100 | – | > 100 | > 100 | – | > 100 | – | > 100 | – | > 100 | – | > 100 | – | > 100 | > 100 | – | > 100 | – | –
N#C/C(=C\c1ccsc1)c1nc2ccccc2o1 | – | – | > 100 | > 100 | > 100 | > 100 | > 100 | 85.1 | > 100 | > 100 | > 100 | 39.8 | > 100 | 58.8 | > 100 | > 100 | 21.1 | 70.5 | > 100 | 44.7
CC(C)(C)C(=O)OCC1C(=O)OCC1C(=O)N1Cc2cc3ccccc3nc2C1 (configuration not stated) | – | 22 | – | 2.64 | 8.08 | – | 18.9 | – | 11.8 | – | 7.67 | – | 3.27 | – | 28.5 | 7.63 | – | 6.35 | – | –
Cn1ncnc1[C@H]1c2n[nH]c(=O)c3cc(F)cc(c23)N[C@@H]1c1ccc(F)cc1 | 5.81 | > 100 | > 100 | > 100 | > 100 | > 100 | > 100 | > 100 | > 100 | 14.6 | > 100 | 25.9 | > 100 | > 100 | > 100 | > 100 | > 100 | > 100 | 4.19 | > 100
O=C1C(Nc2ccc(Cl)cc2)=C(I)C(=O)c2ncccc21 | 1.79 | 4.74 | 0.278 | 10.4 | 2.26 | 2.01 | 5.37 | 0.247 | 1.03 | 0.989 | 2.19 | 1.69 | 3.12 | 1.55 | 2.91 | 3.54 | 1.59 | 2.94 | 0.828 | 1
O=C1NNC2(C(=O)N1)c1ccccc1-c1ccccc12 | – | > 10 | – | > 10 | > 10 | – | > 10 | – | – | – | > 10 | – | > 10 | – | > 10 | > 10 | – | > 10 | – | –
O=C(Nc1cccc(-n2cc(-c3ccncc3)c(-c3ccc(Cl)c(O)c3)n2)c1)Nc1cc(C(F)(F)F)cc(C(F)(F)F)c1 | 0.902 | 1.81 | 0.52 | 2.98 | 1.9 | 1.23 | 5.67 | 0.345 | 1.11 | 0.795 | 3.28 | 0.935 | 2.21 | 0.604 | 1.26 | 8.93 | 0.843 | 2.75 | 0.692 | 1.55
O=C1c2cc3c(cc2[C@@H]2[C@H]1c1ccc([N+](=O)[O-])cc1C(=O)N2CCCBr)OCO3 | < 0.01 | < 0.0486 | < 0.0121 | 0.444 | 0.318 | < 0.01 | 0.0177 | < 0.037 | – | 0.0771 | 7 | < 0.01 | < 0.01 | < 0.01 | 0.0101 | > 100 | 0.134 | 4.04 | < 0.01 | < 0.01
Cc1ccccc1OCC(O)CN1CCN(c2ccc(Cl)cc2)CC1 (configuration not stated) | 15.9 | 32.3 | 10.6 | 30.7 | 34.6 | 14.8 | 29.5 | 16.6 | 31.7 | 16 | 30.2 | 20.2 | 37.8 | 16.3 | 30.2 | 47.3 | – | – | 17 | 18.5
O=C1Nc2ccc(Br)cc2C1=Nc1cccnc1 | – | 74.2 | – | 52.7 | 31.5 | – | 87.1 | – | 44.3 | – | 25.1 | – | 29.1 | – | 31.8 | 52.7 | – | > 100 | – | –
CSC1=C(N)C(=O)c2[nH]cc(CO)c2C1=N | 0.193 | 0.342 | 0.221 | 0.534 | 0.285 | 0.239 | 0.781 | 0.134 | 0.346 | 0.123 | 0.249 | 0.281 | 0.85 | 0.0451 | 0.164 | 0.644 | 1.37 | 2.72 | 0.139 | 0.264
CC1CCC/C1=C(/I)C(=O)c1ccccc1 (configuration not stated) | – | > 100 | – | > 100 | > 100 | – | > 100 | – | – | – | > 100 | – | > 100 | – | 69.5 | > 100 | – | > 100 | – | –
Nc1ncnc2c1N=C(c1ccc3c(c1)OCO3)CC(c1ccc([N+](=O)[O-])cc1)N2 (configuration not stated) | 67.6 | > 100 | 22.5 | > 100 | > 100 | 55.4 | > 100 | 88.3 | > 100 | > 100 | > 100 | 7.19 | 63.1 | 82.9 | > 100 | > 100 | 80.9 | > 100 | > 100 | 80.7
O=C(Nc1ccc(Br)cc1F)c1cc(I)ccc1O | 2.27 | 8.15 | 2.52 | > 100 | 13.1 | 2.63 | 8.5 | 3.06 | > 100 | 3.16 | > 100 | 2.55 | 7.54 | 1.48 | 2.98 | 6.35 | 4.77 | 9.43 | 2.88 | 1.92
Cc1c(C(=O)Nc2ccccc2)sc2ncn(Cc3cccc(Cl)c3)c(=O)c12 | 18.3 | 45.8 | 4.87 | > 100 | > 100 | 25.7 | > 100 | 41 | > 100 | 27.8 | > 100 | 24.8 | 71.4 | 25.7 | > 100 | > 100 | 11.7 | > 100 | 43.6 | 42.9
O=C(/C=C/Sc1cc(C(F)(F)F)cc(C(F)(F)F)c1)c1ccc(Cl)cc1 | 18.3 | 32.7 | 2.92 | 24.6 | 3.36 | 23.4 | 46.3 | 1.48 | 4.19 | 13.5 | 30.7 | 12 | 25.3 | 17.4 | 32.9 | 4.09 | 22.3 | 37.8 | 1.67 | 1.82
NCCCC[C@@H]1NC(=O)[C@H]2CCCN2C(=O)[C@H](Cc2ccccc2)CNC(=O)[C@H](Cc2ccccc2)NC1=O | > 37.5 | > 37.5 | > 17.9 | > 37.5 | > 37.5 | > 37.5 | > 37.5 | > 37.5 | > 37.5 | > 37.5 | > 37.5 | > 37.5 | > 37.5 | > 37.5 | > 37.5 | > 37.5 | > 37.5 | > 37.5 | > 37.5 | > 37.5
O=C(C/C(=N/O)C(=O)NC1=C(Cl)C(=O)c2ccccc2C1=O)CC(c1ccccc1)c1c(O)c2ccccc2oc1=O (configuration not stated) | – | – | – | > 100 | 18.6 | – | > 100 | – | 15.2 | – | 22.2 | – | 35 | – | 2.38 | 38.1 | – | – | – | –
COc1ccc(CCN2CC=Cn3c2nc2ccccc2c3=O)cc1 | 0.0346 | > 64 | 0.0203 | > 100 | – | 0.0179 | 0.77 | 0.0214 | 0.0605 | 0.0637 | > 96 | 0.0309 | > 100 | 0.0265 | 0.154 | > 100 | 40 | > 100 | – | 16
